Data from patent US20210395248A1, “INHIBITORS OF HUMAN IMMUNODEFICIENCY VIRUS REPLICATION” (ViiV HEALTHCARE UK (NO.5) LIMITED, priority 2018, published 2021).
pEC50: −log10 of the molar value.

What was measured:
[1] = Compound cytotoxicity, XTT-based colorimetric assay; assay type: cell-based; conditions: human; uninfected MT2 cells, day 4, XTT; read-out: CC50
Experimental: Compound cytotoxicity and the corresponding CC50 values were determined using the same protocol as described in the antiviral assay except that uninfected cells were used. Cytotoxicity was assessed on day 4 in uninfected MT2 cells by using a XTT (2,3-bis [2-Methoxy-4-nitro-5-sulfophenyl]-2H-tetrazolium-5-carboxyanilide inner salt)-based colorimetric assay (Sigma-Aldrich, St Louis, Mo.).

[2] = tested on: recombinant NL4-3 virus (Renilla luciferase reporter) in MT-2 cells; experiment: HIV cell culture assay (antiviral activity, luciferase readout in infected MT-2 cells); assay type: cell-based; conditions: NL43

SMILES: Cn1nc(NS(C)(=O)=O)c2c(Cl)ccc(-n3c([C@H](Cc4cc(F)cc(F)c4)NC(=O)Cn4nc(C(F)F)c5c4C(F)(F)[C@@H]4C[C@H]54)nc4nc(N5CC6CCC(C5)O6)ccc4c3=O)c21 [Example 21, N-((1S)-1-(7-(8-oxa-3-azabicyclo[3.2.1]octan-3-yl)-(3P)-3-(4-chloro-1-methyl-3-(methylsulfonamido)-1H-indazol-7-yl)-4-oxo-3,4-dihydropyrido[2,3-d]pyrimidin-2-yl)-2-(3,5-difluorophenyl)ethyl)-2-((3bS,4aR)-3-(difluoromethyl)-5,5-difluoro-3b,4,4a,5-tetrahydro-1H-cyclopropa[3,4]cyclopenta[1,2-c]pyrazol-1-yl)acetamide]
- CC50 at 4 days [1]: > 100 nM
- pEC50 [2]: 10.24
